Test results from US4537723A, “Derivatives of leukotrienes A and C” (The Upjohn Company, priority 1983, dated 1985).

Tested on: SRS-A formation in rat mononuclear cells
Test: SRS-A formation in rat mononuclear cells incubated with cysteine and challenged with a calcium ionophore
Format: cell-based
Settings: 10 μg/ml; for inhibition at 10 µg/mL: Rattus norvegicus, read-out: effectiveness in preventing the synthesis of SRS-A
Description: As an example of the SRS-A inhibitory activity of the compounds of this invention, several of these compounds were evaluated in a standard laboratory test. This test is conducted in rat mononuclear cells incubated in the presence of cysteine and challenged with a calcium ionophore (which induces SRS-A formation). In this test system, two of these compounds, the isomers of 1-carboxy-3-N-octylcyclopropane-2-octanoic acid.

Row | Compound | inhibition at 10 µg/mL | inhibition of the synthesis of SRS-A (rat mononuclear cells, calcium ionophore challenge)
1 | CCCCCCCCC(O)C(CCCCCCCC(=O)O)[Se]c1ccccc1 (stereo not drawn) [9-Phenylselenyl-10-Hydroxyoctadecanoic Acid] | 100% | –
2 | CCCCCCCCC([Se]c1ccccc1)C(O)CCCCCCCC(=O)O (stereo not drawn) [9-Hydroxy-10-Phenylselenyloctadecanoic Acid] | 100% | –
3 | CCCCCCCCC1C(CCCCCCCC(=O)O)C1C(=O)O (stereo not drawn) [Example 4, 1-Carboxy-3-n-Octylcyclopropane-2-Octanoic Acid] | – | totally inhibited
